Laboratory results reported in patent US6897209B2, “Labelled factor XIIIa substrates” (GE Healthcare Limited, priority 1997, dated 2005).

What was measured:
[1] = target: T1, human plasma clots (Homo sapiens, UniProt P00488); test: Incorporation into human plasma clots (in vitro plasma clot assay); assay type: biochemical; settings: for % specific uptake*: % retained with thrombin − % retained no thrombin; for % retained in plasma clot assay (with thrombin): human plasma with thrombin and calcium chloride, 60 minutes, ca. 20° C.
T1 construct: Factor XIII is transformed into its active form Factor XIIIa by thrombin in the presence of calcium ions; from tissue; host or cells: human plasma, clotted in vitro with thrombin and calcium chloride
T1 sequence (P00488 39-732): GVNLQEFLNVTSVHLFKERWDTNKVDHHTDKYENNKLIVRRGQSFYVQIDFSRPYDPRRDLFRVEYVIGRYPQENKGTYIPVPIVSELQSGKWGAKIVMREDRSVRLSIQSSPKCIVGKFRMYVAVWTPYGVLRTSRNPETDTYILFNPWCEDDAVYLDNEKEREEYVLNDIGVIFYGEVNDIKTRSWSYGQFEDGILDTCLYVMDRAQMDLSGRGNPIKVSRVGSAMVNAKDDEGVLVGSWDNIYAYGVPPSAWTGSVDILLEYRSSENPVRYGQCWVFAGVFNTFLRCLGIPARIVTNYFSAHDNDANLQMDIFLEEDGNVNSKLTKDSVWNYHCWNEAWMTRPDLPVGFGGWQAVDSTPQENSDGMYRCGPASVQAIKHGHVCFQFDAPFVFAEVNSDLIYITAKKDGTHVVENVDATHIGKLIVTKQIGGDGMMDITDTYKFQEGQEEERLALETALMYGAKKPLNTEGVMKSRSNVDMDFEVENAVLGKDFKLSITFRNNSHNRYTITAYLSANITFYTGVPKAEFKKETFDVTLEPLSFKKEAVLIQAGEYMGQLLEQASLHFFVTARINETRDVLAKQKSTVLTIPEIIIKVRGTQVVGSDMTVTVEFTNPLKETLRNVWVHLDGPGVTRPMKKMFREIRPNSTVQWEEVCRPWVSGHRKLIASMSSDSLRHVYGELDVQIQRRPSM
Method: (§1) Incorporation of radiolabelled substrates into fibrin was investigated by induction of an in vitro human plasma clot in the following manner. To a siliconised 5 ml glass vial was added, (a) 800 μl of Tris(hydroxymethyl)aminomethane buffered saline pH 7.5 containing calcium chloride (50 mM Tris, 150 mM sodium chloride, 4 mM calcium chloride.), (b) 40 μl of physiological salt solution containing 100 units of thrombin per ml, (c) 400 μl of human plasma containing the radiolabelled substrate at a concentration of typically 10 kBq/ml. To aid induction of clot a roughened glass rod was added to the reaction vial. Control vials were prepared similarly but with the omission of thrombin and calcium chloride.
(§2) The proportion of total radioactivity was calculated by counting in suitable detection apparatus.
(§3) The fraction of radioactivity retained on the filter, after subtraction of the non-specific binding determined from the control, is a measure of incorporation into the filtered clots.

[2] = system: human plasma clots; test: as above; assay type: biochemical; settings: control vials without thrombin and calcium chloride, 60 minutes
Method: as §1, §2, §3

[3] = target: T2, Factor XIIIa (Homo sapiens, UniProt P00488); test: Factor XIIIa dependency of incorporation (dimethylcasein uptake, normal vs Factor XIII deficient plasma); assay type: biochemical; settings: 1 KBq/ml, 60 minutes; uptake in normal plasma minus Factor XIII deficient plasma
T2 construct: Factor XIII is transformed into its active form Factor XIIIa by thrombin in the presence of calcium ions; from tissue; host or cells: human plasma
T2 sequence (P00488 39-732 limits assumed): T1 sequence (P00488 39-732)
Method: The assay was changed by replacing the mercaptoethanol with aprotinin at a final concentration of 2 μg/ml, and dimethylcasein (DMC) was used instead of casein.

[4] = Normal rat biodistribution; assay type: in vivo; settings: i.v., male Wistar rats, Mean±SD n=3
Method: The resolution of a clot image is dependant on the combination of rate of incorporation of the radiopharmaceutical and its blood/tissues clearance rate. For this reason the biodistribution of several compounds has been determined in rats. Male Wistar (100-150 g) rats were injected i.v. with 0.1-0.2 ml of radiolabelled tracer solution (8 MBq/ml) and dissected at different times post-injection. The % ID in each of the selected tissues was measured. Some animals were kept in metabolism cages to be able to determine the % ID excreted in urine and faeces. The dissection times used for the majority of the agents was 2, 15, 30, 60, 240 min. Data are shown as % ID, Mean±SD, (n=3).

[5] = system: clots induced in rat inferior vena cava; test: Incorporation into clots induced in a rat model (rat inferior vena cava model); assay type: in vivo; settings: rat IVC model; for Clot/Blood / Clot/Heart / Clot/Liver / Clot/Lung: 60 min; for % ID/g (clot uptake) / Relative conc (cpm/g of clot by dose/g animal): compound injected 5 min post-induction, clot removed after 60 min
Method: The rats (Male Wistar, 250-350 g) were anaesthetised with 15% urethane. After laparotomy, the vena cava was isolated and freed of surrounding fat tissue. […] The average weight of the clots formed in this model was around 27 mg, n=32, (5-50 mg range). The so compounds were injected 5 min post-induction. After 60 min the animals were sacrificed and the clot removed, weighed and counted. Other tissues e.g. blood, lung, heart, were also dissected and counted. The uptake of tracer into the clot was determined as the relative concentration (cpm/g of clot by dose/g animal ) and clot to background tissue.

## CC(=NO)C(C)(C)NCCN(CCNC(=O)c1ccc(S(=O)(=O)NCCCCCN)cc1)CCNC(C)(C)C(C)=NO [Compound 16, 3,3,11,11-tetramethyl-7-(4-N-(5-aminopentyl)-amidosulphonyl)benzamidoethyl-4,7,10-triazatridecane-2,12-dione dioxime]
[1]
  % specific uptake*: 1.2%
  % retained in plasma clot assay (with thrombin): 2%
[2]
  % retained in plasma clot assay (no thrombin): 0.8%
[3]
  % specific DMC casein uptake: 1%
[4]; 2 min post-injection
  % ID Blood: 17.8 ± 1.78 % ID
  % ID GI Tract: 6.61 ± 0.43 % ID
  % ID Heart: 0.44 ± 0.09 % ID
  % ID Kidney: 10.55 ± 1.1 % ID
  % ID Liver: 5.61 ± 0.23 % ID
  % ID Lung: 1.53 ± 0.12 % ID
  % ID Muscle: 32.9 ± 0.97 % ID
  % ID Urine: 1.74 ± 1.05 % ID
[4]; 30 min post-injection
  % ID Blood: 2.20 ± 0.5 % ID
  % ID GI Tract: 27.3 ± 3.45 % ID
  % ID Heart: 0.06 ± 0.01 % ID
  % ID Kidney: 3.47 ± 0.71 % ID
  % ID Liver: 5.15 ± 0.75 % ID
  % ID Lung: 0.31 ± 0.08 % ID
  % ID Muscle: 4.63 ± 0.25 % ID
  % ID Urine: 48.0 ± 2.22 % ID
[4]; 60 min post-injection
  % ID Blood: 0.38 ± 0.14 % ID
  % ID GI Tract: 31.6 ± 6.4 % ID
  % ID Heart: 0.01 ± 0.01 % ID
  % ID Kidney: 1.80 ± 0.65 % ID
  % ID Liver: 3.07 ± 0.47 % ID
  % ID Lung: 0.09 ± 0.03 % ID
  % ID Muscle: 1.51 ± 0.53 % ID
  % ID Urine: 58.2 ± 8.87 % ID
[4]; 240 min post-injection
  % ID Blood: 0.04 ± 0.04 % ID
  % ID GI Tract: 36.5 ± 1.5 % ID
  % ID Heart: 0.00 % ID
  % ID Kidney: 1.06 ± 0.06 % ID
  % ID Liver: 2.01 ± 0.11 % ID
  % ID Lung: 0.04 ± 0.00 % ID
  % ID Muscle: 0.55 ± 0.08 % ID
  % ID Urine: 58.9 ± 1.66 % ID
[5]
  Clot/Blood: 1.7
  Clot/Heart: 3.8
  Clot/Liver: 0.37
  Clot/Lung: 2.1
  % ID/g (clot uptake): 0.27 ± 0.06 % ID/g
  Relative conc (cpm/g of clot by dose/g animal): 0.93 ± 0.16

## CC(=NO)C(C)(C)NCC(C)(CNC(=O)CCCCCN)CNC(C)(C)C(C)=NO (stereo not shown) [Compound 4, 3,3,6,9,9-pentamethyl-6-N-(6aminohexoyl)aminomethyl-4,8-diazaundecane-2,10-dione dioxime]
[1]
  % specific uptake*: 2.6%
  % retained in plasma clot assay (with thrombin): 3%
[2]
  % retained in plasma clot assay (no thrombin): 0.4%
[3]
  % specific DMC casein uptake: 2%
[4]; 2 min post-injection
  % ID Blood: 10.33 ± 1.2 % ID
  % ID GI Tract: 13.6 ± 0.8 % ID
  % ID Heart: 0.33 + 0.06 % ID
  % ID Kidney: 8.34 ± 2.7 % ID
  % ID Liver: 19.9 ± 0.87 % ID
  % ID Lung: 1.08 ± 0.15 % ID
  % ID Muscle: 22.6 ± 0.8 % ID
  % ID Urine: 2.44 ± 1.68 % ID
[4]; 30 min post-injection
  % ID Blood: 0.98 ± 0.18 % ID
  % ID GI Tract: 62.7 ± 2.7 % ID
  % ID Heart: 0.04 + 0.02 % ID
  % ID Kidney: 2.39 ± 0.81 % ID
  % ID Liver: 5.06 ± 0.89 % ID
  % ID Lung: 0.16 % ID
  % ID Muscle: 5.27 ± 0.4 % ID
  % ID Urine: 19.49 ± 1.96 % ID
[4]; 60 min post-injection
  % ID Blood: 0.43 ± 0.07 % ID
  % ID GI Tract: 68.6 ± 0.4 % ID
  % ID Heart: 0.02 + 0.02 % ID
  % ID Kidney: 1.49 ± 0.04 % ID
  % ID Liver: 5.3 ± 0.9 % ID
  % ID Lung: 0.1 ± 0.04 % ID
  % ID Muscle: 2.26 ± 0.05 % ID
  % ID Urine: 18.81 ± 0.85 % ID
[4]; 240 min post-injection
  % ID Blood: 0.21 ± 0.08 % ID
  % ID GI Tract: 70.1 ± 1.9 % ID
  % ID Heart: 0.01 + 0.04 % ID
  % ID Kidney: 1.51 ± 0.02 % ID
  % ID Liver: 3.81 ± 0.92 % ID
  % ID Lung: 0.06 ± 0.01 % ID
  % ID Muscle: 1.94 ± 0.35 % ID
  % ID Urine: 19.88 ± 3.03 % ID
[5]
  Clot/Blood: 2.3
  Clot/Heart: 4.0
  Clot/Liver: 0.27
  Clot/Lung: 2.7
  % ID/g (clot uptake): 0.18 ± 0.06 % ID/g
  Relative conc (cpm/g of clot by dose/g animal): 0.52 ± 0.2

## CC(=NO)C(C)(C)NCCN(CCNC(=O)C1CCC(CNC(=O)c2ccc(S(=O)(=O)NCCCCCN)cc2)CC1)CCNC(C)(C)C(C)=NO (stereo not shown) [Compound 17]
[1]
  % specific uptake*: 14.7%
  % retained in plasma clot assay (with thrombin): 17%
[2]
  % retained in plasma clot assay (no thrombin): 2.3%
[3]
  % specific DMC casein uptake: 22.5%
[4]; 2 min post-injection
  % ID Blood: 18.5 ± 1.06 % ID
  % ID GI Tract: 6.31 ± 0.6 % ID
  % ID Heart: 0.34 + 0.17 % ID
  % ID Kidney: 12.3 ± 0.53 % ID
  % ID Liver: 4.3 ± 0.06 % ID
  % ID Lung: 1.69 ± 0.1 % ID
  % ID Muscle: 25.9 ± 1.8 % ID
  % ID Spleen: 0.33 ± 0.07 % ID
  % ID Urine: 1.38 ± 1.34 % ID
[4]; 15 min post-injection
  % ID Blood: 9.46 ± 0.24 % ID
  % ID GI Tract: 9.6 ± 0.9 % ID
  % ID Heart: 0.27 + 0.06 % ID
  % ID Kidney: 7.32 ± 0.76 % ID
  % ID Liver: 4.25 ± 0.85 % ID
  % ID Lung: 0.9 ± 0.16 % ID
  % ID Muscle: 15.6 ± 1.05 % ID
  % ID Spleen: 0.17 ± 0.04 % ID
  % ID Urine: 30.1 ± 1.28 % ID
[4]; 30 min post-injection
  % ID Blood: 5.7 ± 0.42 % ID
  % ID GI Tract: 13.07 ± 1.4 % ID
  % ID Heart: 0.17 + 0.04 % ID
  % ID Kidney: 7.1 ± 1.89 % ID
  % ID Liver: 2.94 ± 0.22 % ID
  % ID Lung: 0.54 ± 0.07 % ID
  % ID Muscle: 8.51 ± 0.93 % ID
  % ID Spleen: 0.11 ± 0.03 % ID
  % ID Urine: 46.9 ± 3.71 % ID
[4]; 60 min post-injection
  % ID Blood: 2.23 ± 0.15 % ID
  % ID GI Tract: 17.7 ± 3.8 % ID
  % ID Heart: 0.07 + 0.02 % ID
  % ID Kidney: 3.77 ± 0.73 % ID
  % ID Liver: 1.79 ± 0.45 % ID
  % ID Lung: 0.28 ± 0.02 % ID
  % ID Muscle: 4.31 ± 0.95 % ID
  % ID Spleen: 0.07 ± 0.02 % ID
  % ID Urine: 65.8 ± 3.4 % ID
[4]; 240 min post-injection
  % ID Blood: 0.09 ± 0.02 % ID
  % ID GI Tract: 25.4 ± 5.2 % ID
  % ID Heart: 0.01 % ID
  % ID Kidney: 5.1 ± 0.99 % ID
  % ID Liver: 1 + 0.17 % ID
  % ID Lung: 0.1 ± 0.01 % ID
  % ID Muscle: 0.81 ± 0.26 % ID
  % ID Spleen: 0.03 ± 0.02 % ID
  % ID Urine: 66.08 ± 4.98 % ID
[5]
  Clot/Blood: 1.15
  Clot/Heart: 2.7
  Clot/Liver: 1.26
  Clot/Lung: 1.54
  % ID/g (clot uptake): 0.32 ± 0.04 % ID/g
  Relative conc (cpm/g of clot by dose/g animal): 1.1 ± 0.17
